From article PMC4349624, “In vitro synergistic effect of fluoroquinolone analogues in combination with artemisinin against Plasmodium falciparum; their antiplasmodial action in rodent malaria model” (Malaria Journal, 2015)

Experiments:
[1] = test system: Plasmodium falciparum 3D7 strain; assay: antiplasmodial interaction assay, fixed-ratio combination isobologram method with artemisinin; assay type: cell-based; conditions: n = 3
Description: Stock culture of malaria parasite P. falciparum 3D7 strain (chloroquine sensitive) was continuously maintained in vitro using a CO2 incubator under low-oxygen concentration (3%) and high carbon dioxide atmosphere (4%) along with nitrogen (93%), incubated at a temperature of 37°C. The parasites were maintained on O^+ human red blood cells suspended in a complete culture medium. Each litre of RPMI-1640 aqueous culture medium was prepared with 10.4 g of powdered RPMI-1640 (with glutamine but without sodium bicarbonate), 5.94 g of HEPES buffer, 1 g of dextrose and 40 mg of gentamicin. Complete medium was constituted just before use by adding sterile 5% sodium bicarbonate at the rate of 4 ml per 96 ml, and supplemented with 10% (v/v) pooled O^+ human serum. Infected erythrocytes were suspended in this culture media initiated at a haematocrit value of 5% and parasitemia was kept between 2 and 4% with sub-culturing done beyond 5%. Medium was changed once a day and percentage parasitemia was monitored using Giemsa stained slides.
Artemisinin (Sigma Aldrich, USA) was prepared in DMSO to get the stock solution of 1 mg/ml strength. Compounds 10, 12 and 18 were synthesized according to the procedure described by Dixit et al. and each compound was made to strength of 1 mg/ml stock solution in DMSO. The stock solutions were diluted on the day of experiment to get the desired concentrations for each compound. The highest amount of DMSO in diluted concentrations was 0.125%, and had no effect on parasite growth.
In each combination assay, two compounds (Compound A, artemisinin and Compound B, a fluoroquinolone derivative or norfloxacin) were combined in four fixed ratios (4:1, 3:2, 2:3, and 1:4).
Compound dilutions of each combination solution were made in sterile, flat-bottomed, 96-well tissue culture plates as described by Fivelman et al.. Six times two-fold serial dilution was done for each combination in triplicate. Each well contained a total volume of 200 μl of complete culture medium with or without compound and pre-synchronized infected red blood cells (1% parasitemia at 2.5% haematocrit). Control cultures (without compound) were maintained on the same plate in triplicate. Two 96-well plates (for six combinations) were used for each combination experiment. The plates were stacked in a CO2 incubator and incubated at 37°C for 48 hours.
After 48-hour incubation, thin blood smear slides were prepared, air dried, methanol fixed, and stained in Giemsa solution for 40 min. After staining, slides were removed from coupling jar, washed in running tap water and air dried. The Giemsa-stained slides were examined for counting the number of parasites in random adjacent microscopic fields, equivalent to about 4,000 erythrocytes at 1,000 × magnification. Per cent parasitemia was calculated. Reproducibility of counts was checked by two other readers to maintain the quality control.
For each combination assay, IC50 was calculated from two sets of concentration response graphs, each containing compound alone curve and four combination curves.
ƩFIC <1 represents synergism, ƩFIC > = 1 and <2 represents additive interaction, ƩFIC > = 2 and <4 represents slight antagonism while ƩFIC > = 4 represents marked antagonism.

Plasmodium berghei ANKA = assay: Peters' four-day suppressive test in BALB/c mice; assay type: in vivo; conditions: ip; for Mean ED50 ± SE: once daily days 0 to 3, BALB/c mice, n = 5
From the text: Evaluation of the curative potential of the fluoroquinolone derivatives was done using the method described by Ryley and Peters, 1970 (rodent malaria four-day suppressive test; Peters’ four-day suppressive test). Rodent malaria parasite Plasmodium berghei ANKA was used.
[…] BALB/c inbred albino mice (25–30 g) of the male sex were obtained from the Animal Facility Centre of the Department of Zoology, University of Delhi. The animals were fed ad libitum with standard feed and had free access to water. They were maintained under standard conditions of humidity, temperature (25°C) and 12 hours light/darkness cycles. The animals were acclimatized for two weeks before the commencement of the study and were ensured to exclude all zoonotic agents.
Day 0: Heparinized blood was withdrawn from an infected donor mouse with approximately 25-30% parasitemia, and diluted in 1x PBS to 10^8 parasitized erythrocytes per mL. An aliquot of 0.2 mL (=2 × 10^7 parasitized erythrocytes) of this suspension was injected intraperitoneally (ip) into experimental groups of five mice each. One to three hours post-infection, the experimental groups were treated with varying doses of each of the test compounds (0.5, 1, 10, 25 mg/kg BW) by the ip route. Each compound was made to strength of 5 mg/ml stock solution in 10% DMSO and administered according to desired concentration and individual body weight. Artemisinin was given to the standard drug group and 0.2 mL of normal saline to the negative control group.
Day 1, 2 and 3: 24 hours, 48 hours and 72 hours post-infection, the experimental groups of mice were treated again with the same dose and by the same route as on day 0.
Day 4: 24 hours after the last treatment (i.e., 96 hours post-infection), blood was drawn from the tail region of mice and smears were prepared. […] Differences in parasitemia percentage between treated groups and untreated animals were analysed by a one-way ANOVA test using IBM SPSS Statistics 16.0 and differences considered significant if P < 0.05. […] Percentinhibitionactivity=100–Meanparasitemia/control×100
Untreated control mice typically died approximately one week after infection. […] The mean survival time was calculated in comparison to untreated (Normal saline) and standard drug (artemisinin) treated groups. Differences in survival time between treated groups and untreated animals were analysed by Log-rank (Mantel-Cox) test using GraphPad Prism 5 and differences considered significant if P <0.005. Observations concerning adverse effects due to the compounds were recorded.

[2] = cited from earlier work

SMILES: C[C@@H]1CC[C@H]2[C@@H](C)C(=O)O[C@@H]3O[C@@]4(C)CC[C@@H]1[C@]32OO4 [Artemisinin]
- Drug A (Artemisinin) Mean FIC50 ± SE ([1]; ratio A:B 1:4, combined with compound 10): 0.17 ± 0.03
- Drug A (Artemisinin) Mean FIC50 ± SE ([1]; ratio A:B 1:4, combined with compound 12): 0.25 ± 0.004
- Drug A (Artemisinin) Mean FIC50 ± SE ([1]; ratio A:B 1:4, combined with compound 18): 0.22 ± 0.01
- Drug A (Artemisinin) Mean FIC50 ± SE ([1]; ratio A:B 1:4, combined with norfloxacin): 0.14 ± 0.01
- Drug A (Artemisinin) Mean FIC50 ± SE ([1]; ratio A:B 2:3, combined with compound 10): 0.48 ± 0.02
- Drug A (Artemisinin) Mean FIC50 ± SE ([1]; ratio A:B 2:3, combined with compound 12): 0.50 ± 0.02
- Drug A (Artemisinin) Mean FIC50 ± SE ([1]; ratio A:B 2:3, combined with compound 18): 0.49 ± 0.04
- Drug A (Artemisinin) Mean FIC50 ± SE ([1]; ratio A:B 2:3, combined with norfloxacin): 0.66 ± 0.02
- Drug A (Artemisinin) Mean FIC50 ± SE ([1]; ratio A:B 3:2, combined with compound 10): 0.58 ± 0.03
- Drug A (Artemisinin) Mean FIC50 ± SE ([1]; ratio A:B 3:2, combined with compound 12): 0.60 ± 0.03
- Drug A (Artemisinin) Mean FIC50 ± SE ([1]; ratio A:B 3:2, combined with compound 18): 0.55 ± 0.03
- Drug A (Artemisinin) Mean FIC50 ± SE ([1]; ratio A:B 3:2, combined with norfloxacin): 0.29 ± 0.02
- Drug A (Artemisinin) Mean FIC50 ± SE ([1]; ratio A:B 4:1, combined with compound 10): 0.61 ± 0.01
- Drug A (Artemisinin) Mean FIC50 ± SE ([1]; ratio A:B 4:1, combined with compound 12): 0.63 ± 0.03
- Drug A (Artemisinin) Mean FIC50 ± SE ([1]; ratio A:B 4:1, combined with compound 18): 0.58 ± 0.02
- Drug A (Artemisinin) Mean FIC50 ± SE ([1]; ratio A:B 4:1, combined with norfloxacin): 0.91 ± 0.03
- Drug A (Artemisinin) Mean FIC50 ± SE ([1]; ratio A:B 5:0, assay with compound 10): 1.02 ± 0.04
- Drug A (Artemisinin) Mean FIC50 ± SE ([1]; ratio A:B 5:0, assay with compound 12): 1.0 ± 0.02
- Drug A (Artemisinin) Mean FIC50 ± SE ([1]; ratio A:B 5:0, assay with compound 18): 0.97 ± 0.07
- Drug A (Artemisinin) Mean FIC50 ± SE ([1]; ratio A:B 5:0, assay with norfloxacin): 1.13 ± 0.06
- Mean ED50 ± SE (Plasmodium berghei ANKA): 1.72 ± 0.15 mg/kg BW
- Mean ED50 ± SE (Plasmodium berghei ANKA; listed as artemisinin): 1.72 mg/kg BW
- survival of treated mice (Plasmodium berghei ANKA; varying doses 0.5-25 mg/kg BW, observed 30 days): survived beyond two weeks
- half life [2]: < one
